Molecular target: PDE9A (Homo sapiens (Human), UniProt O76083)
Test: PDE9A inhibition, fluorescence polarization assay (IMAP-FP screening express kit)
Assay type: biochemical
Details: Fl-cGMP substrate 100 nM, PDE9A 5 ng/ml, 1 hour at room temperature
Description: The inhibitory activity of the representative compounds according to the present invention against phosphodiesterase 9A was tested based on the polarization assay (IMAP-FP screening express kit) provided by MDS (MDS Analytical Technologies, Sunyvale, CA, USA). As a buffer solution, a reaction solution (a reaction solution containing 0.01% Tween 20 provided by MDS was diluted 5 times, then 5 mM DTT is added) and a polarization detection solution (binding solution A and B provided by MDS were mixed at a ratio of 3:1 and IMAP binding reagent 1/600 was added) were prepared. 100 μM of the substrate (Fl-cGMP substrate; MDS) and 3.6 μg/ml of the enzyme PDE9A (ab54113; abcam) were prepared. 3.6 μg/ml PDE9A and 100 μM substrate were diluted to 20 ng/ml (final reaction concentration: 5 ng/ml) and 400 nM (final reaction concentration: 100 nM), respectively. The buffer solution used for all dilution and preparation processes was 1× reaction solution with 1 mM DTT added, and the polarization detection solution was used to induce polarization at the end.
The prepared samples were dispensed on black microplates (Multiwell 384 well plates, #3573, Corning Life Sciences, Lowell, MA, USA) using a 16-channel pipette (multi 16-channel, Finnpipette, Thermo Scientific, Essex, UK). The total reaction volume per well is 20 μl. At this time, 10 μl of 2% DMSO, 5 μl of substrate solution, and 5 μl of reaction solution were used as a negative control, and 10 μl of 2% DMSO, 5 μl of substrate solution, and 5 μl of PDE9A solution were used as a positive control. As the experimental group, 10 μl of the compound prepared in Example, 5 μl of the substrate solution, and 5 μl of the PDE9A solution were used. After pretreatment between the compound and the enzyme was performed for about 10 minutes before the enzyme-substrate reaction, 5 μl of cGMP was added to induce the enzyme reaction. During the reaction, each compound, enzyme, and substrate occupied 50%, 25%, and 25% of the total volume, respectively, and they were prepared at high concentrations of 2, 4, and 4 times, respectively, immediately before addition. After the enzymatic reaction, it was shaken lightly for 1 minute and the enzyme reaction was induced at room temperature for 1 hour. Then, 60 μl of a polarization detection solution prepared in advance was added to induce polarization.
Nanoparticles composed of trivalent metal ions are mixed in the fluorescence detection solution, which combines with phosphoric acid expose by enzymatic reaction to increase the molecular weight and induce polarization. After leaving for 2 hours at room temperature, the polarization (Fluorescence Polarization, FP) value was measured using a multilabel counter (Envision, PerkinElmer, Turku, Finland) (emission wavelength: P-535 nm, S-535 nm, excitation wavelength: 480 nm), and the result was expressed as an IC50 value, which is the concentration of the compound that inhibited PDE9A by 50% in vitro (Table 2).

Chain of PDE9A (O76083 whole entry): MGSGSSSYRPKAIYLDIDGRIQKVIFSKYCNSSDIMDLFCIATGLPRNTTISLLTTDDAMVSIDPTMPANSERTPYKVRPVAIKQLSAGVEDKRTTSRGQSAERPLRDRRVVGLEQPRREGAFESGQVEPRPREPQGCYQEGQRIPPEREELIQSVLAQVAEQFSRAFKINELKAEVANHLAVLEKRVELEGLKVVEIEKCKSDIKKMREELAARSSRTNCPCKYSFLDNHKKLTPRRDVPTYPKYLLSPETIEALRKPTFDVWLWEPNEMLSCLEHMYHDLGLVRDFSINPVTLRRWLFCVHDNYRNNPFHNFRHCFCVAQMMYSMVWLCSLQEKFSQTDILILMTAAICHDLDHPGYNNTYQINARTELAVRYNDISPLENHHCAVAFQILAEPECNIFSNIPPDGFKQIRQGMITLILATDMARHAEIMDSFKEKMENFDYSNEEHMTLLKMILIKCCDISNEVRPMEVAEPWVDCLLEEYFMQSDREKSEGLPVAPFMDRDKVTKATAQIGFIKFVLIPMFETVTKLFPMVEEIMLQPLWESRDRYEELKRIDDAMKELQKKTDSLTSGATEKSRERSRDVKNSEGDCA

| IC50 | Structure (SMILES) |
| --- | --- |
| 1660 nM | O=c1[nH]c(SCc2nc3cc(Cl)c([N+](=O)[O-])cc3o2)nc2c1cnn2C1CCC(F)(F)CC1 [Example 40, 6-(((5-chloro-6-nitrobenzo[d]oxazol-2-yl)methyl)thio)-1-(4,4-difluorocyclohexyl)-1,5-dihydro-4H-pyrazolo[3,4-d]pyrimidin-4-one] |
| 6630 nM | CC(C)(C)c1ccc2oc(CSc3nc4c(cnn4-c4ccccc4)c(=O)[nH]3)nc2c1 [Example 27, 6-(((5-(tert-butyl)benzo[d]oxazol-2-yl)methyl)thio)-1-phenyl-1,5-dihydro-4H-pyrazolo[3,4-d]pyrimidin-4-one] |
| 5 nM | O=c1[nH]c(SCc2nc3ccccc3o2)nc2c1cnn2C1CCOCC1 [Example 1, 6-((benzo[d]oxazol-2-ylmethyl)thio)-1-(tetrahydro-2H-pyran-4-yl)-1,5-dihydro-4H-pyrazolo[3,4-d]pyrimidin-4-one] |
| 4 nM | Cc1ccc2nc(CSc3nc4c(cnn4C(C)C)c(=O)[nH]3)oc2c1 [Example 18, 6-(((6-methylbenzo[d]oxazol-2-yl)methyl)thio)-1-isopropyl-1,5-dihydro-4H-pyrazolo[3,4-d]pyrimidin-4-one] |
